The experiment deals with T1, human LPA1 (Homo sapiens, UniProt Q92633).
T1 construct: the full-length cDNA for human LPA1 was obtained by PCR of the reverse transcription reaction; expressed in transfected cells
In words: LPA1 calcium flux assay (HLPA1 Ca Flux). Type of experiment: cell-based. The note with it: Human LPA1 expressing CHO cells, stimulated with 10 nM LPA. The method, then: A 1.1 kb cDNA encoding the human LPA1 receptor was cloned from human lung. Human lung RNA (Clontech Laboratories, Inc. USA) was reverse transcribed using the RETROscript kit (Ambion, Inc.) and the full-length cDNA for human LPA1 was obtained by PCR of the reverse transcription reaction. The nucleotide sequence of the cloned human LPA1 was determined by sequencing and confirmed to be identical to the published human LPA1 sequence (An et al. Biochem. Biophys. Res. Commun. 231:619 (1997). The cDNA was cloned into the pcDNAS/FRT expression plasmid and transfected in CHO cells using lipofectamine 2000 (Invitrogen Corp., USA). Clones stably expressing human LPA1 were selected using hygromycin and identified as cells that show Ca-influx in response to LPA.
Human LPA1 or LPA3 expressing CHO cells are seeded at 20,000-45,000 cells per well in a 96-well poly-D-lysine coated plate one or two days before the assay. Prior to the assay, the cells are washed once with PBS and then cultured in serum-free media overnight. On the day of the assay, a calcium indicator dye (Calcium 4, Molecular Devices) in assay buffer (HBSS with Ca^2+ and Mg^2+ and containing 20 mM Hepes and 0.3% fatty-acid free human serum albumin) is added to each well and incubation continued for 1 hour at 37° C. 10 μl of test compounds in 2.5% DMSO are added to the cells and incubation continued at room temperature for 30 minutes. Cells are the stimulated by the addition of 10 nM LPA and intracellular Ca^2+ measured using the Flexstation 3 (Molecular Devices). IC50s are determined using Graphpad prism analysis of drug titration curves.

T1 sequence (Q92633 whole entry): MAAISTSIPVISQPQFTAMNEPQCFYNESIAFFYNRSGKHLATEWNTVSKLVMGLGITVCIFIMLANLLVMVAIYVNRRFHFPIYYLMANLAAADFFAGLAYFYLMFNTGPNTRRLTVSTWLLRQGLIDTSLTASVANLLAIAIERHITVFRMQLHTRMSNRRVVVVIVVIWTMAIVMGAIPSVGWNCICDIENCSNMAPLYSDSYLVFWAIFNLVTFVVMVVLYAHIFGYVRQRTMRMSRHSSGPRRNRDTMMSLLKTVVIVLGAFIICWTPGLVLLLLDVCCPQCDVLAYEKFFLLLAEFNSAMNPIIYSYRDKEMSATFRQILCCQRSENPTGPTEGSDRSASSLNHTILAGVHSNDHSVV

One may read the IC50 as the concentration that gives 50% inhibition. Regarding `Cc1noc(-c2ccc(-c3ccc(CC(=O)O)cc3)cc2)c1NC(=O)OC(C)c1c(Cl)cccc1Cl` (stereo not drawn) [Compound 1-101, (4′-{4-[1-(2,6-Dichloro-phenyl)-ethoxycarbonylamino]-3-methyl-isoxazol-5-yl}-biphenyl-4-yl)-acetic acid], the IC50 was 1000 to 50000 nM. Next, `Cc1noc(-c2ccc(OCc3ccc(C(=O)O)cc3)cc2)c1NC(=O)O[C@H](C)c1ccccc1F` [Compound 1-104, 4-(4-{4-[(R)-1-(2-Fluoro-phenyl)-ethoxycarbonylamino]-3-methyl-isoxazol-5-yl}-phenoxymethyl)-benzoic acid]: 1000 to 50000 nM; `CCOC(=O)Cc1ccc(Sc2ccc(-c3onc(C)c3NC(=O)O[C@H](C)c3ccccc3F)cc2)cc1` [Compound 1-105, [4-(4-{4-[(R)-1-(2-Fluoro-phenyl)-ethoxycarbonylamino]-3-methyl-isoxazol-5-yl}-phenylsulfanyl)-phenyl]-acetic acid ethyl ester]: 1000 to 50000 nM. As to `Cc1noc(-c2ccc(Sc3cccc(CC(=O)O)c3)cc2)c1NC(=O)O[C@H](C)c1ccccc1F` [Compound 1-106, [3-(4-{4-[(R)-1-(2-Fluoro-phenyl)-ethoxycarbonylamino]-3-methyl-isoxazol-5-yl}-phenylsulfanyl)-phenyl]-acetic acid], the IC50 was in the range of 300 to 1000 nM. Next, `Cc1noc(-c2ccc(Sc3ccccc3CC(=O)O)cc2)c1NC(=O)O[C@H](C)c1ccccc1F` [Compound 1-107, [2-(4-{4-[(R)-1-(2-Fluoro-phenyl)-ethoxycarbonylamino]-3-methyl-isoxazol-5-yl}-phenylsulfanyl)-phenyl]-acetic acid]: 1000 to 50000 nM.

In the case of `Cc1noc(-c2ccc(Sc3ccc(CC(=O)O)cn3)cc2)c1NC(=O)O[C@H](C)c1ccccc1F` [Compound 1-108, [6-(4-{4-[(R)-1-(2-Fluoro-phenyl)-ethoxycarbonylamino]-3-methyl-isoxazol-5-yl}-phenylsulfanyl)-pyridin-3-yl]-acetic acid], the IC50 was under 300 nM. Consider `Cc1cc(-c2onc(C)c2NC(=O)O[C@H](C)c2ccccc2F)ccc1-c1ccc(C(C)C(=O)O)cc1` (stereo partly drawn) [Compound 1-110, 2-(4′-{4-[(R)-1-(2-Fluoro-phenyl)-ethoxycarbonylamino]-3-methyl-isoxazol-5-yl}-2′-methyl-biphenyl-4-yl)-propionic acid], for which the IC50 was under 300 nM. Next, `Cc1noc(-c2ccc(-c3ccc(CC(=O)O)cc3)cc2)c1NC(=O)OCc1ccccc1Cl` [Compound 1-113, {4′-[4-(2-Chloro-benzyloxycarbonylamino)-3-methyl-isoxazol-5-yl]-biphenyl-4-yl}-acetic acid]: 300 to 1000 nM. Next, `COc1ccc(C(C)OC(=O)Nc2c(C)noc2-c2ccc(-c3ccc(CC(=O)O)cc3)cc2)c(F)c1` (stereo not drawn) [Compound 1-118, (4′-{4-[1-(2-Fluoro-4-methoxy-phenyl)-ethoxycarbonylamino]-3-methyl-isoxazol-5-yl}-biphenyl-4-yl)-acetic acid]: 300 to 1000 nM; `Cc1noc(-c2ccc(-c3ccccc3CC(=O)O)cc2)c1NC(=O)O[C@H](C)c1ccccc1` [Compound 1-123]: 1000 to 50000 nM; `Cc1noc(-c2ccc(-c3ccc(C(=O)O)cc3)cc2)c1NC(=O)OC(C)C` [Compound 1-125, 4′-(4-Isopropoxycarbonylamino-3-methyl-isoxazol-5-yl)-biphenyl-4-carboxylic acid]: 1000 to 50000 nM. For the compound `COC(=O)Cn1nnc(-c2ccc(-c3onc(C)c3NC(=O)O[C@H](C)c3ccccc3F)cc2)n1` [Compound 1-134, [5-(4-{4-[(R)-1-(2-Fluoro-phenyl)-ethoxycarbonylamino]-3-methyl-isoxazol-5-yl}-phenyl)-tetrazol-2-yl]-acetic acid methyl ester], the concentration for half-maximal inhibition (IC50) lay within 1000 to 50000 nM. Next, `Cc1noc(-c2ccc(-c3nnn(CC(=O)O)n3)cc2)c1NC(=O)O[C@H](C)c1ccccc1F` [Compound 1-135, [5-(4-{4-[(R)-1-(2-Fluoro-phenyl)-ethoxycarbonylamino]-3-methyl-isoxazol-5-yl}-phenyl)-tetrazol-2-yl]-acetic acid]: 1000 to 50000 nM. The value for `Cc1noc(-c2ccc(-c3ccc(CC(=O)O)cc3)cc2)c1NC(=O)OC(C)(C)C` [Compound 1-136, [4′-(4-tert-Butoxycarbonylamino-3-methyl-isoxazol-5-yl)-biphenyl-4-yl]-acetic acid] was 300 to 1000 nM. The value for `Cc1noc(-c2ccc(CN3CC(C(=O)O)C3)cc2)c1NC(=O)O[C@H](C)c1ccccc1` [Compound 1-140] was 1000 to 50000 nM. For `Cc1noc(-c2ccc(-c3ccc(CC(=O)O)cc3)cc2)c1NC(=O)O[C@H](C)c1cc(Br)cc(Br)c1` [Compound 1-141, (4′-{4-[(R)-1-(3,5-Dibromo-phenyl)-ethoxycarbonylamino]-3-methyl-isoxazol-5-yl}-biphenyl-4-yl)-acetic acid], the IC50 was 1000 to 50000 nM. Take `Cc1noc(-c2ccc(Cc3ccc(C(=O)NC4CC4)cc3)cc2)c1NC(=O)OC(C)c1ccccc1Cl` (stereo not drawn) [Compound 2-1, {5-[4-(4-Cyclopropylcarbamoyl-benzyl)-phenyl]-3-methyl-isoxazol-4-yl}-carbamic acid 1-(2-chloro-phenyl)-ethyl ester]: the IC50 was under 300 nM. Next, `Cc1noc(-c2ccc(-c3ccc(CC(=N)N)cc3)cc2)c1NC(=O)O[C@H](C)c1ccccc1F` [Compound 2-6, [5-(4′-Carbamimidoylmethyl-biphenyl-4-yl)-3-methyl-isoxazol-4-yl]-carbamic acid (R)-1-(2-fluoro-phenyl)-ethyl ester]: 1000 to 50000 nM. For `CC(=O)NC(=N)Cc1ccc(-c2ccc(-c3onc(C)c3NC(=O)O[C@H](C)c3ccccc3F)cc2)cc1` [Compound 2-7, {5-[4′-(2-Acetylamino-2-imino-ethyl)-biphenyl-4-yl]-3-methyl-isoxazol-4-yl}-carbamic acid (R)-1-(2-fluoro-phenyl)-ethyl ester], the IC50 was under 300 nM. The value for `Cc1noc(-c2ccc3cc(-c4ccc(CC(=O)O)cc4)ccc3c2)c1NC(=O)OC(C)c1ccccc1Cl` (stereo not drawn) [Compound 3-1] was 300 to 1000 nM; that for `Cc1noc(-c2ccc3cc(-c4ccc(CSCCC(=O)O)cc4)ccc3c2)c1NC(=O)OC(C)c1ccccc1Cl` (stereo not drawn) [Compound 3-2, 3-[4-(6-{4-[1-(2-Chloro-phenyl)-ethoxycarbonylamino]-3-methyl-isoxazol-5-yl}-naphthalen-2-yl)-benzylsulfanyl]-propionic acid] was 300 to 1000 nM. The value for `Cc1noc(-c2csc(-c3ccc(CC(=O)O)cc3)n2)c1NC(=O)O[C@H](C)c1ccccc1F` [Compound 3-3, [4-(4-{4-[(R)-1-(2-Fluoro-phenyl)-ethoxycarbonylamino]-3-methyl-isoxazol-5-yl}-thiazol-2-yl)-phenyl]-acetic acid] was 1000 to 50000 nM. For `Cc1noc(-c2csc(-c3ccccc3CC(=O)O)n2)c1NC(=O)O[C@H](C)c1ccccc1F` [Compound 3-5, [2-(4-{4-[(R)-1-(2-Fluoro-phenyl)-ethoxycarbonylamino]-3-methyl-isoxazol-5-yl}-thiazol-2-yl)-phenyl]acetic acid], the IC50 lay in the range of 1000 to 50000 nM. Next, `Cc1noc(-c2csc(-c3cccc(CC(=O)O)c3)n2)c1NC(=O)O[C@H](C)c1ccccc1F` [Compound 3-6, [3-(4-{4-[(R)-1-(2-Fluoro-phenyl)-ethoxycarbonylamino]-3-methyl-isoxazol-5-yl}-thiazol-2-yl)-phenyl]acetic acid]: 300 to 1000 nM.

For the origin of these results see patent publication US20110301142A1, “ANTAGONISTS OF LYSOPHOSPHATIDIC ACID RECEPTORS” (priority 2008, published 2011).
